The text below walks through data of patent US11535609B2, “Pyrazine-2(1H)-ketone compound preparation method” (ZHANGZHOU PIEN TZE HUANG PHARMACEUTICAL CO., LTD., priority 2019, dated 2022).

Data set [1] in a line: Pharmacokinetics in mice, single gavage. Type of data set: in vivo, CD-1 mouse (male). The protocol:
Experimental purpose: To test the pharmacokinetics of the compound in mice
CD-1 mouse (male), vehicle (0.5% (w/v) methylcellulose 0.5% (v/v) Tween 80 aqueous solution), trifluoroacetate of compound 0027.
The vehicle was an aqueous solution of 0.5% (w/v) methylcellulose and 0.5% (v/v) Tween 80, and it was prepared according to the following procedure:
Formulation of Preparations for Intragastric Administration: […]
a. An appropriate amount of the test product was weighed and put into a glass bottle;
b. 70% volume of vehicle (0.5% (w/v) methyl cellulose 0.5% (v/v) Tween 80 aqueous solution) was added;
c. The preparation was stirred until it was visually homogeneous, and subjected to ultrasound in water bath as needed;
e. Make up the remaining volume of 0.5% methylcellulose+0.5% Tween 80, and the mixture was stirred until being visually homogeneous.
Animals in groups 1 and 2 were administrated 5 mg/mL and 30 mg/mL compounds by single gavage, with a dose volume of 10 mL/kg.
The body weight of the animals was weighed before administration, and the administration volume was calculated based on the body weight.
Whole blood samples (30 μL) were collected at the prescribed time (0.25, 0.5, 1, 2, 4, 6, 8, 24 h) through saphenous vein blood collection, and the actual blood collection time was recorded in the test record. The acceptable error of the collection time point was a time point within 1 hour of the administration ±1 minute, and the acceptable error of other time points is a theoretical time ±5%.
All blood samples were immediately transferred to labeled commercial centrifuge tubes containing K2-EDTA. After being collected, the blood samples were centrifuged at 3200 rpm for 10 minutes at 4° C. to aspirate the supernatant plasma, which was quickly placed in dry ice, kept at −20° C. or a lower temperature for LC-MS/MS analysis. The pharmacokinetic parameters were calculated.

Data set [2] deals with wild-type FGFR. The data set is described as follows: Inhibitory activity of wild-type kinase in vitro (overall conclusion). The settings on record: conclusion in words. Type of data set: biochemical, human. The protocol: The IC50 value was determined using ^33P isotope-labeled kinase activity test (Reaction Biology Corp) to evaluate the inhibitory ability of the compounds to be tested on human FGFR4 and VEGFR2.
Buffer conditions: 20 mM 4-(2-hydroxyethyl)-1-piperazineethanesulfonic acid (Hepes) (pH 7.5), 10 mM MgCl2, 1 mM ethylene glycol-bis-(2-aminoethyl ether)tetra acetic acid (EGTA), 0.02% polyoxyethylene lauryl ether (Brij35), 0.02 mg/ml bovine serum albumin (BSA), 0.1 mM sodium vanadate (Na3VO4), 2 mM dithiothreitol (DTT), 1% DMSO.
Experimental steps: At room temperature, the compounds to be tested were dissolved in DMSO to prepare a 10 mM solution for use. The substrate was dissolved in the freshly prepared buffer, and the kinase to be tested was added thereto and mixed well. The DMSO solution in which the compounds to be tested were dissolved was added to the above-mentioned homogeneous reaction solution using acoustic technology (Echo 550). The compound concentration in the reaction solution is 10 μM, 3.33 μM, 1.11 μM, 0.370 μM, 0.123 μM, 41.2 nM, 13.7 nM, 4.57 nM, 1.52 nM, 0.508 nM, or 10 μM, 2.50 μM, 0.62 μM, 0.156 μM, 39.1 nM, 9.8 nM, 2.4 nM, 0.61 nM, 0.15 nM, 0.038 nM. […] After the filter paper was repeatedly washed with 0.75% phosphoric acid solution, the radioactivity of the phosphorylated substrate remaining on the filter paper was measured. […]

In data set [1] (CD-1 mouse, gavage, 50 mpk), `COc1cc(OC)c(Cl)c(-c2nc(-c3nc(-c4cn(C)nc4C)cnc3N)cn(C)c2=O)c1` came in with an AUC0-inf of 95.847 µM·h, an AUC0-last of 85.826 µM·h, an MRT0-inf of 5.39 h and an MRT0-last of 4.33 h. Further, in data set [1] (CD-1 mouse, gavage, 50 mpk), the T1/2 was found to be 2.46 h and the time of peak concentration (Tmax) (in general, the time from dosing to the highest level) was found to be 1.00 h. Also, in data set [1] (CD-1 mouse, gavage, 300 mpk), the AUC0-last worked out at 699.413 µM·h, the MRT0-last was 11.1 h and the Tmax is 7.00 h. The “pharmacokinetic indexes in mice” value in data set [1] (conclusion in words) is “good pharmacokinetic indexes”. In data set [2], the “inhibitory activity against wild-type FGFR” value was “good inhibitory activity”; the “selectivity towards FGFR2 and FGFR3 compared to FGFR1 and FGFR4” value is listed as “relative high selectivity”.
